Measured values: ChEMBL document CHEMBL5104157, “Design, synthesis and biological evaluation of light-driven on-off multitarget AChE and MAO-B inhibitors” (RSC Med Chem, 2022)

How the values were obtained:
Acetylcholinesterase = Acetylcholinesterase (Homo sapiens, UniProt P22303); assay: Inhibition of human serum recombinant AChE using acetylthiocholine iodide as a substrate incubated for 20 mins by DTNB reagent based Ellman's method; format: cell-free
[1] = molecular target: T1, MAO-A (amine oxidase [flavin-containing] A) (Homo sapiens, UniProt P21397); assay: Inhibition of human recombinant MAO-A assessed as reduction in 4-hydroxyquinoline level using kynuramine as a substrate at 10 uM preincubated for 5 mins followed by substrate addition by spectrofluorimetric analysis; settings: probe kynuramine
T1 sequence (P21397 whole entry): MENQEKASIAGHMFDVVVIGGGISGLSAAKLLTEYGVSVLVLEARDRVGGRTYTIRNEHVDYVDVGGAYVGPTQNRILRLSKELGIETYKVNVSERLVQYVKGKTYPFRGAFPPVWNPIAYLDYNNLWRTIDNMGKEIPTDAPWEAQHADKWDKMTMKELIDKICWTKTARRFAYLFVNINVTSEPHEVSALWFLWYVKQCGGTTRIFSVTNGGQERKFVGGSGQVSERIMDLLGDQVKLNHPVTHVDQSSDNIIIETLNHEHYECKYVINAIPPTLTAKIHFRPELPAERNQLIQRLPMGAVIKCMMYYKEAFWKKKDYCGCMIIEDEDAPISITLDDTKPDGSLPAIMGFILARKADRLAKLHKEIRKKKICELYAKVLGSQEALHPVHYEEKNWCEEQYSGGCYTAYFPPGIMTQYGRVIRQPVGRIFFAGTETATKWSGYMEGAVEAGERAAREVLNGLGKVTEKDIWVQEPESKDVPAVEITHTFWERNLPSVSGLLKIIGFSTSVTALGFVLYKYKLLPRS

[2] = molecular target: Cholinesterase (Homo sapiens) (UniProt P06276); assay: Inhibition of human serum recombinant BChE using butyrylthiocholine iodide as a substrate at 10 uM incubated for 20 mins by DTNB reagent based Ellman's method; format: cell-free
Chain of Cholinesterase (Homo sapiens) (P06276 whole entry): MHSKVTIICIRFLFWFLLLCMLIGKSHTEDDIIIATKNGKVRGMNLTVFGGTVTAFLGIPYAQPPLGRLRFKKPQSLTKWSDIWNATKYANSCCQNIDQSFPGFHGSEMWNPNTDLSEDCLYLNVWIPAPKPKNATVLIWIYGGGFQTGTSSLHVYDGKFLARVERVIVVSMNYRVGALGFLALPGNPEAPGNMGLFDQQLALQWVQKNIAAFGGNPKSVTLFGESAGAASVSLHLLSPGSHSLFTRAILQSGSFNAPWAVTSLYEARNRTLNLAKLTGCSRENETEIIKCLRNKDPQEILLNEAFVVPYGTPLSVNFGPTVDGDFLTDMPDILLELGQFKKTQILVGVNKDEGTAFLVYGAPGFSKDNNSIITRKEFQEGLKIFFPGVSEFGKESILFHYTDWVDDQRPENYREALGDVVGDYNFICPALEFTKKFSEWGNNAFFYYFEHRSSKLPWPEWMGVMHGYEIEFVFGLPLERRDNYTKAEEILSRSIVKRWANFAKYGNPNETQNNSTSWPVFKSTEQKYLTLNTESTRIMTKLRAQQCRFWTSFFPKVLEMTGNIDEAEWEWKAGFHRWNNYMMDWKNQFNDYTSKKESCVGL

[3] = molecular target: Amyloid-beta precursor protein (Homo sapiens) (UniProt P05067); assay: Inhibition of amyloid beta (1 to 40) (unknown origin) self aggregation at 10 uM incubated for 2 hrs by ThT fluorescence assay
Chain of Amyloid-beta precursor protein (Homo sapiens) (P05067 whole entry): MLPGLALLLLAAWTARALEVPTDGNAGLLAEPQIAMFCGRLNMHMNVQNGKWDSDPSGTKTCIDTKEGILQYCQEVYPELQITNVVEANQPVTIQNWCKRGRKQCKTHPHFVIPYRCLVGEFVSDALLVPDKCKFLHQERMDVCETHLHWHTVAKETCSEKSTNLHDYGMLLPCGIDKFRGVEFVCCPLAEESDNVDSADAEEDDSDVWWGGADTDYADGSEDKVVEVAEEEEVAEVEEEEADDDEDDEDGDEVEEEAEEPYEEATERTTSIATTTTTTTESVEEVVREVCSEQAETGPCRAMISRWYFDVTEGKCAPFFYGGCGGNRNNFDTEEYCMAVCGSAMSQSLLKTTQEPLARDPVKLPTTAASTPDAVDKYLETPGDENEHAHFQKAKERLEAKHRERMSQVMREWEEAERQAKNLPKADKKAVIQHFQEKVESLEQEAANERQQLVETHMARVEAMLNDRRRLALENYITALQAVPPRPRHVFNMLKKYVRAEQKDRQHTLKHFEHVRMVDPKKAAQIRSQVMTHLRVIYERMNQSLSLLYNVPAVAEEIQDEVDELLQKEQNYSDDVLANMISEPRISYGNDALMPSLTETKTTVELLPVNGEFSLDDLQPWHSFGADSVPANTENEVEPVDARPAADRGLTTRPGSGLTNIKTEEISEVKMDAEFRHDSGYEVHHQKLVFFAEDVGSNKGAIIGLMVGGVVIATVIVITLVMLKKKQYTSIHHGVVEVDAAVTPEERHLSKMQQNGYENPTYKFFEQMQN

[4] = molecular target: T2, Amine oxidase [flavin-containing] B (Homo sapiens, UniProt P27338); assay: Inhibition of human recombinant MAO-B assessed as reduction in 4-hydroxyquinoline level using kynuramine as a substrate preincubated for 5 mins followed by substrate addition by spectrofluorimetric analysis
T2 sequence (P27338 whole entry): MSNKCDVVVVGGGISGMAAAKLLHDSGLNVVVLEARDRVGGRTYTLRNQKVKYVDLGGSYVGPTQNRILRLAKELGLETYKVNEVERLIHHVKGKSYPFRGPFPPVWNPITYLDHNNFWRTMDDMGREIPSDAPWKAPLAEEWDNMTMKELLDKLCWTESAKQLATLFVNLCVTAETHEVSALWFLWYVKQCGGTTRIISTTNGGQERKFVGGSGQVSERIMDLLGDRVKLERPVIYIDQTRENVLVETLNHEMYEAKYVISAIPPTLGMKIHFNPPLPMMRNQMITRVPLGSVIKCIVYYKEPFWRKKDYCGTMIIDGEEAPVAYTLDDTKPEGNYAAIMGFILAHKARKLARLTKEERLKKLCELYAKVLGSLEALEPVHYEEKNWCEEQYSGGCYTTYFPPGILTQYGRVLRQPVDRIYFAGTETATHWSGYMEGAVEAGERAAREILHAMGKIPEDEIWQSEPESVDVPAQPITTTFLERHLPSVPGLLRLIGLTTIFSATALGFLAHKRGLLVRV

[5] = molecular target: T3, Amine oxidase [flavin-containing] A (Homo sapiens, UniProt P21397); assay: Inhibition of human recombinant MAO-A assessed as reduction in 4-hydroxyquinoline level using kynuramine as a substrate preincubated for 5 mins followed by substrate addition by spectrofluorimetric analysis
T3 sequence (P21397 whole entry): T1 sequence (P21397 whole entry)

Chain of Acetylcholinesterase (P22303 whole entry): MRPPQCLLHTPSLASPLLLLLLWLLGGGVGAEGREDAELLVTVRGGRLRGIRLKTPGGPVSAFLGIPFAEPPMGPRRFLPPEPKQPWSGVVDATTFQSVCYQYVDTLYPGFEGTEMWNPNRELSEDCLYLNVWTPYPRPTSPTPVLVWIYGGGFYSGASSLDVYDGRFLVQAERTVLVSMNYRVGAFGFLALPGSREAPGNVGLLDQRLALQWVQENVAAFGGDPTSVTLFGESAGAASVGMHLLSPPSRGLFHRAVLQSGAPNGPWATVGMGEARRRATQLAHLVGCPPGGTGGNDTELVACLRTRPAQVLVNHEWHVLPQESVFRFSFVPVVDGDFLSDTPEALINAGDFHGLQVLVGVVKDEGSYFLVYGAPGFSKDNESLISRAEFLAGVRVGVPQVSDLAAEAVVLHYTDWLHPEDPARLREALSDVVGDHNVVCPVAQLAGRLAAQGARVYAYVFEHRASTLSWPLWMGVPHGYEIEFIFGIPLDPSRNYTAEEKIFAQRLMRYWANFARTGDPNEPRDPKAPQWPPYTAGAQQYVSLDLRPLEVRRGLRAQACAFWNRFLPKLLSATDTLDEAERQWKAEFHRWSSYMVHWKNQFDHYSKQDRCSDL

Row | Compound | IC50 (Acetylcholinesterase) | inhibition at 10 µM [1] | inhibition [2] | inhibition [3] | IC50 [4] | IC50 [5]
1 | CCN(CC)Cc1ccc(C=C2Cc3cc(OC)ccc3C2=O)cc1 | 505 nM | 45.1% | – | – | – | –
2 | CCN(CC)Cc1ccc(C=C2Cc3ccc(OC)cc3C2=O)cc1 | 1100 nM | – | 8.3% | 37.7% | – | –
3 | CCN(CC)Cc1ccc(/C=C2/Cc3cc(OC)ccc3C2=O)cc1 | 1150 nM | 28.2% | – | 23.4% | 1940 nM | –
4 | CCN(CC)Cc1ccc(/C=C2\Cc3cc(OC)c(OC)cc3C2=O)cc1 | 63 nM | 49.6% | – | – | 783 nM | –
5 | CCN(CC)Cc1ccc(/C=C2\Cc3ccccc3C2=O)cc1 | 612 nM | 42.7% | 17.8% | – | 661 nM | –
6 | O=c1c(O)c(-c2ccc(O)c(O)c2)oc2cc(O)cc(O)c12 | – | – | – | 84.4% | – | –
7 | CCN(CC)Cc1ccc(/C=C2\Cc3ccc(OC)cc3C2=O)cc1 | 964 nM | – | 14.3% | – | 91 nM | 95 nM
8 | CCN(CC)Cc1ccc(/C=C2\Cc3cc(OC)ccc3C2=O)cc1 | 113 nM | 32.8% | – | 7.4% | – | –
9 | CCN(CC)Cc1ccc(C=C2Cc3cc(OC)c(OC)cc3C2=O)cc1 | 253 nM | – | – | 56% | – | –
10 | CCN(CC)Cc1ccc(C=C2Cc3ccccc3C2=O)cc1 | 1310 nM | – | 16.2% | 8.1% | – | –
